In the supplement of paper PMC5908809:

Columns and labels:
NK-92 (IL-2 2.5 ng/mL) [1] = assay: drug sensitivity score (DSS) (DSS units); higher = more sensitive; extreme values may be limits of the assay; details: 72 h
[2] = system: normal primary NK cells, pool 1 (3 donors) (IL-2 2.5 ng/mL); assay: as above; details: 72 h
[3] = system: normal primary NK cells, pool 3 (3 donors) (IL-2 2.5 ng/mL); assay: as above; details: 72 h
IMC-1 (IL-2 20 ng/mL) [4] = assay: as above; details: 72 h
[5] = system: normal primary NK cells, pool 2 (3 donors) (IL-2 2.5 ng/mL); assay: as above; details: 72 h
NKL (IL-2 2.5 ng/mL) [6] = assay: as above; details: 72 h
KAI3 (IL-2 2.5 ng/mL) [7] = assay: as above; details: 72 h
[8] = system: normal primary NK cells, pool 1 (3 donors), resting (IL-2 0 ng/mL); assay: as above; details: 72 h
SNK-6 (IL-2 2.5 ng/mL) [9] = assay: as above; details: 72 h
DERL-7 (IL-2 2.5 ng/mL) [10] = assay: as above; details: 72 h
YT (IL-2 2.5 ng/mL) [11] = assay: as above; details: 72 h
NK-YS (IL-2 2.5 ng/mL) [12] = assay: as above; details: 72 h
KHYG-1 (IL-2 2.5 ng/mL) [13] = assay: as above; details: 72 h
NK-92 (IL-2 2.5 ng/mL) [14] = assay: percent inhibition of viability; higher = more inhibition; details: 72 h
[15] = system: normal primary NK cells, pool 1 (3 donors) (IL-2 2.5 ng/mL); assay: as above; details: 72 h
[16] = system: normal primary NK cells, pool 3 (3 donors) (IL-2 2.5 ng/mL); assay: as above; details: 72 h
IMC-1 (IL-2 20 ng/mL) [17] = assay: as above; details: 72 h
[18] = system: normal primary NK cells, pool 2 (3 donors) (IL-2 2.5 ng/mL); assay: as above; details: 72 h
NKL (IL-2 2.5 ng/mL) [19] = assay: as above; details: 72 h
KAI3 (IL-2 2.5 ng/mL) [20] = assay: as above; details: 72 h
[21] = system: normal primary NK cells, pool 1 (3 donors), resting (IL-2 0 ng/mL); assay: as above; details: 72 h
SNK-6 (IL-2 2.5 ng/mL) [22] = assay: as above; details: 72 h
DERL-7 (IL-2 2.5 ng/mL) [23] = assay: as above; details: 72 h
YT (IL-2 2.5 ng/mL) [24] = assay: as above; details: 72 h
NK-YS (IL-2 2.5 ng/mL) [25] = assay: as above; details: 72 h
KHYG-1 (IL-2 2.5 ng/mL) [26] = assay: as above; details: 72 h
[27] = system: normal NK cells expanded with K562-aAPC; assay: as above; details: 72 h, IL-2 2.5 ng/mL
Method: (§1)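 Drug sensitivity and resistance testing on K562-aAPC-expanded normal NK cells: 5 concentrations (10-fold steps over a 10,000-fold range), 72 h at 37 °C, viability by CellTiter-Glo normalised to DMSO and benzethonium chloride controls; DSS from the fitted curve.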

[28] = system: normal NK cells expanded with K562-aAPC; assay: drug sensitivity score (DSS) (DSS units); higher = more sensitive; extreme values may be limits of the assay; details: 72 h; IL-2 2.5 ng/mL
Method: as §1

Question: Which results are given for Cc1cc(Nc2nc(N[C@@H](C)c3ncc(F)cn3)ncc2Cl)[nH]n1 [AZD1480] (max concentration tested 1000 nM)?
Answer: drug sensitivity score (NK-92 (IL-2 2.5 ng/mL) [1]): 8.24; drug sensitivity score [2]: 8.59; drug sensitivity score [3]: 6.17; drug sensitivity score (IMC-1 (IL-2 20 ng/mL) [4]): 3.91; drug sensitivity score [5]: 7.54; drug sensitivity score (NKL (IL-2 2.5 ng/mL) [6]): 14.5; drug sensitivity score (KAI3 (IL-2 2.5 ng/mL) [7]): 17.1; drug sensitivity score [8]: 0; drug sensitivity score (SNK-6 (IL-2 2.5 ng/mL) [9]): 12.5; drug sensitivity score (DERL-7 (IL-2 2.5 ng/mL) [10]): 13.7; drug sensitivity score (YT (IL-2 2.5 ng/mL) [11]): 5.7; drug sensitivity score (NK-YS (IL-2 2.5 ng/mL) [12]): 7.94; drug sensitivity score (KHYG-1 (IL-2 2.5 ng/mL) [13]): 17.9; percent inhibition of viability (NK-92 (IL-2 2.5 ng/mL) [14]; 0.1 nM): -8.05%; percent inhibition of viability (NK-92 (IL-2 2.5 ng/mL) [14]; 1 nM): 3.14%; percent inhibition of viability (NK-92 (IL-2 2.5 ng/mL) [14]; 10 nM): 1.52%; percent inhibition of viability (NK-92 (IL-2 2.5 ng/mL) [14]; 100 nM): 28.2%; percent inhibition of viability (NK-92 (IL-2 2.5 ng/mL) [14]; 1000 nM): 78%; percent inhibition of viability ([15]; 0.1 nM): -6.31%; percent inhibition of viability ([15]; 1 nM): -10.2%; percent inhibition of viability ([15]; 10 nM): 7.91%; percent inhibition of viability ([15]; 100 nM): 39.2%; percent inhibition of viability ([15]; 1000 nM): 68.6%; percent inhibition of viability ([16]; 0.1 nM): -15.9%; percent inhibition of viability ([16]; 1 nM): -5.65%; percent inhibition of viability ([16]; 10 nM): -9.13%; percent inhibition of viability ([16]; 100 nM): 21.8%; percent inhibition of viability ([16]; 1000 nM): 58.1%; percent inhibition of viability (IMC-1 (IL-2 20 ng/mL) [17]; 0.1 nM): -4.11%; percent inhibition of viability (IMC-1 (IL-2 20 ng/mL) [17]; 1 nM): -5.28%; percent inhibition of viability (IMC-1 (IL-2 20 ng/mL) [17]; 10 nM): -12.7%; percent inhibition of viability (IMC-1 (IL-2 20 ng/mL) [17]; 100 nM): -1.83%; percent inhibition of viability (IMC-1 (IL-2 20 ng/mL) [17]; 1000 nM): 73.8%; percent inhibition of viability ([18]; 0.1 nM): -8.71%; percent inhibition of viability ([18]; 1 nM): -7.23%; percent inhibition of viability ([18]; 10 nM): -6.75%; percent inhibition of viability ([18]; 100 nM): 36.8%; percent inhibition of viability ([18]; 1000 nM): 58%; percent inhibition of viability (NKL (IL-2 2.5 ng/mL) [19]; 0.1 nM): -13.4%; percent inhibition of viability (NKL (IL-2 2.5 ng/mL) [19]; 1 nM): -3.23%; percent inhibition of viability (NKL (IL-2 2.5 ng/mL) [19]; 10 nM): 19.8%; percent inhibition of viability (NKL (IL-2 2.5 ng/mL) [19]; 100 nM): 65.5%; percent inhibition of viability (NKL (IL-2 2.5 ng/mL) [19]; 1000 nM): 76.2%; percent inhibition of viability (KAI3 (IL-2 2.5 ng/mL) [20]; 0.1 nM): 3.55%; percent inhibition of viability (KAI3 (IL-2 2.5 ng/mL) [20]; 1 nM): 2.45%; percent inhibition of viability (KAI3 (IL-2 2.5 ng/mL) [20]; 10 nM): 24.7%; percent inhibition of viability (KAI3 (IL-2 2.5 ng/mL) [20]; 100 nM): 77%; percent inhibition of viability (KAI3 (IL-2 2.5 ng/mL) [20]; 1000 nM): 87.5%; percent inhibition of viability ([21]; 0.1 nM): -5.75%; percent inhibition of viability ([21]; 1 nM): -9.19%; percent inhibition of viability ([21]; 10 nM): 6.02%; percent inhibition of viability ([21]; 100 nM): 2%; percent inhibition of viability ([21]; 1000 nM): 2.57%; percent inhibition of viability (SNK-6 (IL-2 2.5 ng/mL) [22]; 0.1 nM): -1.78%; percent inhibition of viability (SNK-6 (IL-2 2.5 ng/mL) [22]; 1 nM): 7.1%; percent inhibition of viability (SNK-6 (IL-2 2.5 ng/mL) [22]; 10 nM): 4.31%; percent inhibition of viability (SNK-6 (IL-2 2.5 ng/mL) [22]; 100 nM): 59.5%; percent inhibition of viability (SNK-6 (IL-2 2.5 ng/mL) [22]; 1000 nM): 96.2%; percent inhibition of viability (DERL-7 (IL-2 2.5 ng/mL) [23]; 0.1 nM): 0.17%; percent inhibition of viability (DERL-7 (IL-2 2.5 ng/mL) [23]; 1 nM): 6.33%; percent inhibition of viability (DERL-7 (IL-2 2.5 ng/mL) [23]; 10 nM): 14.9%; percent inhibition of viability (DERL-7 (IL-2 2.5 ng/mL) [23]; 100 nM): 62%; percent inhibition of viability (DERL-7 (IL-2 2.5 ng/mL) [23]; 1000 nM): 94.2%; percent inhibition of viability (YT (IL-2 2.5 ng/mL) [24]; 0.1 nM): 2.34%; percent inhibition of viability (YT (IL-2 2.5 ng/mL) [24]; 1 nM): -1.75%; percent inhibition of viability (YT (IL-2 2.5 ng/mL) [24]; 10 nM): 1.84%; percent inhibition of viability (YT (IL-2 2.5 ng/mL) [24]; 100 nM): 10.8%; percent inhibition of viability (YT (IL-2 2.5 ng/mL) [24]; 1000 nM): 70.7%; percent inhibition of viability (NK-YS (IL-2 2.5 ng/mL) [25]; 0.1 nM): 0.27%; percent inhibition of viability (NK-YS (IL-2 2.5 ng/mL) [25]; 1 nM): -0.67%; percent inhibition of viability (NK-YS (IL-2 2.5 ng/mL) [25]; 10 nM): 8.06%; percent inhibition of viability (NK-YS (IL-2 2.5 ng/mL) [25]; 100 nM): 35.8%; percent inhibition of viability (NK-YS (IL-2 2.5 ng/mL) [25]; 1000 nM): 65.3%; percent inhibition of viability (KHYG-1 (IL-2 2.5 ng/mL) [26]; 0.1 nM): 0.27%; percent inhibition of viability (KHYG-1 (IL-2 2.5 ng/mL) [26]; 1 nM): 3.46%; percent inhibition of viability (KHYG-1 (IL-2 2.5 ng/mL) [26]; 10 nM): 15.9%; percent inhibition of viability (KHYG-1 (IL-2 2.5 ng/mL) [26]; 100 nM): 86.6%; percent inhibition of viability (KHYG-1 (IL-2 2.5 ng/mL) [26]; 1000 nM): 95.6%; percent inhibition of viability ([27]; 0.1 nM): -0.54%; percent inhibition of viability ([27]; 1 nM): 2.03%; percent inhibition of viability ([27]; 10 nM): 10.3%; percent inhibition of viability ([27]; 100 nM): 53.7%; percent inhibition of viability ([27]; 1000 nM): 95.5%; drug sensitivity score [28]: 12
